Values joined by “and” are separate entries in the source; they are usually repeats but may differ in a detail not shown here. Identical values can stand only once.
Columns and labels:
HepG2 cells [1] = assay: apoAI-HDL elevation cell-based screen (apoAI accumulation by ELISA); parameters: species or system human; details: for increase of apoAI accumulation / circulating apoAI-HDL: 1 mM
Procedure: HepG2 cells were obtained from the American Type Culture Collection (Rockville, Md.). Fetal bovine serum (FBS) was purchased from Gibco Laboratories. Cells were cultured in minimum essential medium (MEM) containing 10% FBS, and 100 μg/mL of streptomycin, 100 unit/mL of penicillin, and 4 mM of glutamine (Gibco/BRL). Cells were grown for 2 days till they are 80% confluent in 6-well, or 12-well plates before studies. In all cases medium was changed every other day.
To measure apoAI, 96-well microtiter plates were coated with a 1:1000 diluted mixture of three monoclonal antibodies against human apoAI (A05, A17, and A44) for 2 h and incubated in succession with HDL3 (0 to 15 ng/well), sheep polyclonal anti-apoAI serum (Boehringer Mannheim), alkaline phosphatase-labeled rabbit anti-sheep (Cappel), and p-nitrophenyl phosphate (1 mg/mL in 10 mmol/L ethanolamine, 0.5 mmol/L MgCl2, pH 9.5), for 2, 1 and 1 h respectively at 37° C. The plates were washed three times between different incubations. The absorbance at 405 nm was determined by using a Bio-Rad model 550 microplate reader (Bio-Rad).
The effect of Compound A on apoAI-HDL elevation was measured using a cell-based screen assay. The hepatic model, HepG2 cells, was used to observe the accumulation of apoAI as a result of secretion and/or uptake of apoAI; both processes taking place in the liver. HepG2 cells were treated with compounds for 24 hours or 48 hours in DMEM containing 1% RSA. apoAI accumulation was measured by ELISA as described in Materials and Methods.

[2] = system: hypercholesterolemic hamsters; format: in vivo; details: two weeks; for percent increase of HDL cholesterol: 150 mg/kg/d in chow; for percent increase of HDL cholesterol / percent lowering of HDLc: compared to untreated controls
Text: Male Golden Syrian hamsters weighing 110–120 g were obtained from Charles River Laboratories (Wilmington, Mass.). Hamsters were housed individually with wood chip bedding and soft nesting material with lights on a 6 A.M. and off at 6 p.m. Upon arrival the hamsters were acclimated for three days on standard rodent chow and water (Purina rodent chow 5001) ad libitum. Prior to dosing, the hamsters were made hypercholesterolemic by feeding them a powdered diet supplemented with 0.5% cholesterol and 10% coconut oil (Harlan Teklad diet #97235) for one week. Water was added to the powdered chow to form a paste and the chow paste rolled into balls with each animal receiving 20 g of chow paste per day in stainless steel bowls. Chow intake was recorded daily. Body weights were recorded after one week and at the end of the end of the study. Hamsters were distributed into treatment groups after the one-week pretreatment period such that each group had similar average body weights.
Compound A homogenized in methylcellulose/Tween-20 using a polytron PT2100 homogenizer (Brinkman) before adding it to the high cholesterol chow paste and administered as an admixture at the same time each morning for two weeks. At the end of the treatment period the hamsters were fasted in the late afternoon on the day prior to blood collection. Fasting was achieved by transferring the hamsters to clean cages and removing chow stored in cheek pouches. Hamsters were anesthetized with ketamine/rompun solution. When unresponsive to toe pinch and still respiring, blood was collected via cardiac puncture from which plasma was separated and frozen at −80° C.
Lipoproteins were isolated from whole plasma by Fast Phase Liquid Chromatography (FPLC). Cholesterol and triglyceride concentrations in the different lipoprotein fractions were determined by enzymatic methods using a CX-5 chemical analyzer and standard Beckman reagents.
A Dunnetts test was used to compare the experimental and control groups. P<0.05 was considered significant.
The effect of Compound A on HDLc levels was assessed using hypercholesterolemic hamsters. Male Golden Syrian hamsters were fed as described in Materials and Methods. Compound A homogenized as described above before adding it to the high cholesterol chow paste and administered as an admixture at the same time each morning for two weeks. At the end of the treatment period the hamsters were fasted in the late afternoon on the day prior to blood collection. Hamsters were anesthetized with ketamine/rompun solution. When unresponsive to toe pinch and still respiring, blood was collected via cardiac puncture from which plasma was separated and frozen at −80° C.
LDL cholesterol was not affected. Lipid profiles were obtained according to the method published by Lee, A. and coworkers (W. Innis-Whitehouse, X. Li, V. Brown and N. Lee., J. Lipid Res. 39, 679 (1998)).

HepG2 cells [3] = assay: Uptake/delivery of 3[H] cholesteryl ester-HDL to HepG2 cells; format: cell-based, human; details: 12.5 μM, 50 μg/ml 3[H] CE-HDL, 3.5 h, 37° C., vs 100% delivery without compound
Procedure: ^3[H]cholesteryl Hexadecyl Ether-labeled HDL was prepared as described by Rodrigueza et al. (Rodrigueza W. V. et al. (1999) J. Biol. Chem. 274:20344–20350). 40 μCi of ^3[H]hexadecyl ether (40–60 Ci/mmol, NEN life Sciences Products) were incubated with 5 mg of HDL3 and 240 mg of heat-inactivated lipoprotein-deficient plasma, 0.01% aprotinin in a polypropylene tube sealed with nitrogen gas for 40 h at 37° C. according to the method of Terpstra et al. ^3[H]-CE enriched HDL was re-isolated by flotation ultracentrifugation and dialyzed against phosphate-buffered saline (PBS). To perform CE uptake studies, HepG2 cells, seeded in 6 or 12 well plates were grown for 2 days till 80% confluent and, then treated with compounds in 1% RSA-DMEM medium for 24 h. The next day, cells were treated with 12.5 μM compounds and 50 μg/mL of ^3[H]-CE HDL for 3.5 h at 37° C. After incubation, cells were washed 4 times with PBS/BSA and 2 times with PBS, followed by addition of 0.1 N NAOH. Cells were collected, and radioactivity was measured in counts per minute and expressed as percent of ^3[H]-CE delivered to cells.
HepG2 cells were cultured as described above and incubated with 50 μg/ml of ^3[H] CE-HDL particles and compounds for 3.5 h at 37° C. […] CE delivery to HepG2 cells resulting from treatment with indicated compounds compared to a 100% delivery in the absence of any compound. […] CE, as also described by Jin et al. (Jin, F. et al. (1997) Atheroscler. Thromb Vasc Biol. 17: 2020–2028).

SR-BI/II receptors = assay: 3[H] CE delivery to HepG2 cells with anti SR-BI/II antibody blocking; format: cell-based
Procedure: It was important to discern whether or not Compound A was acting through the SR-BI/II receptors to increase the delivery of cholesterol. HepG2 cells were incubated with anti-mouse SR-BI/II antibodies for 45 min. Compound A was then added, and the cells were incubated with 30 μg/ml of ^3[H] CE-HDL for 3.5 h at 37° C. Anti-mouse SR-BI/II antibodies (1.0 mg/mL) reduced delivery of ^3[H] CE by 76%, while Compound A increase the delivery of ^3[H] CE to HepG2 cells by 56%. […] CE to cells provoked by Compound A. Further the anti SR-BI/II antibodies decreased the delivery of ^3[H] CE from 156% to 28% (FIG. 4).

HDL holoprotein = assay: Hepatic clearance/uptake of HDL holoprotein; format: cell-based
Text: The trichloroacetic-precipitable labeled apoAI-HDL in the conditioned medium represents degraded labeled apoAI-HDL. After washing and detaching, cells are centrifuged. Labeled apoAI-HDL in the cellular fraction represents internalized HDL holoprotein; whereas, label in the supernatant represents cell surface bound apoAI-HDL that has been dissociated. Increased amounts of labeled HDL in cells treated with compounds versus cells not treated with compounds indicates increased degradation, internalization, or binding to the cell surface. Compounds are selected which decrease the amount of apoAI-HDL label in the cellular fraction of the cells contacted with a test compound compared to the amount of label in the cellular fraction of the cells not contacted with the test compound. […] Label in the conditioned medium represents degraded labeled-HDL. After washing and detaching, cells are centrifuged. Label in the cellular fraction represents internalized HDL holoprotein; whereas, label in the supernatant represents cell surface bound apoAI-HDL that has been dissociated. Increased amounts of label in cells treated with compounds versus cells not treated with compounds indicates increased degradation, internalization, or binding of apoAI-HDL to the cell surface. […]

apoAI = apoAI synthesis; format: cell-based
[4] = 12.5 μM, compared to control (absence of compounds)

CC(C)(Sc1cc(C(C)(C)C)c(O)c(C(C)(C)C)c1)Sc1cc(C(C)(C)C)c(OCCCCOS(=O)(=O)O)c(C(C)(C)C)c1 [B, Sulfuric acid, mono-(4-{2,6-di-tert-butyl-4-[1-(3,5-di-tert-butyl-4-hydroxy-phenyl-sulfanyl)-1-methylethylsulfanyl]-phenoxy}-butyl)ester]
percent increase of apoAI (apoAI-HDL) accumulation (HepG2 cells [1]; [4]): ~30%

CC(C)(Sc1cc(C(C)(C)C)c(O)c(C(C)(C)C)c1)Sc1cc(C(C)(C)C)c(OC[C@@H](O)[C@@H](O)[C@@H](O)C(=O)O)c(C(C)(C)C)c1 [Compound A, 5-[4-[1-[(3,5-bis(1,1-dimethylethyl)-4-hydroxyphenyl)thio]-1-methylethyl]thio-2,6-bis(1,1-dimethylethyl)phenoxy]-2(R),3(R),4(R)-trihydroxypentanoic acid]
percent increase of HDL cholesterol [2]: 30%
effect on LDL cholesterol ([2]; 150 mg/kg/d): not affected
percent increase of apoAI (apoAI-HDL) accumulation (HepG2 cells [1]; [4]): 122.5% and 122%
percent increase of apoAI (apoAI-HDL) accumulation (HepG2 cells [1]; 25 μM, compared to control): 132.5% and 132%
percent increase of 3[H]CE delivery to HepG2 cells (HepG2 cells [3]): 109% and 108%
percent increase of 3[H]CE delivery to HepG2 cells (SR-BI/II receptors; 30 μg/ml 3[H] CE-HDL, 3.5 h, 37° C., no antibody): 56%
delivery of 3[H] CE, percent of control (SR-BI/II receptors; Compound A in presence of anti SR-BI/II antibodies): 28%
delivery of 3[H] CE, percent of control (SR-BI/II receptors; Compound A without antibodies): 156%

CC(C)(Sc1cc(C(C)(C)C)c(O)c(C(C)(C)C)c1)Sc1cc(C(C)(C)C)c(OCC(O)CNCC(=O)O)c(C(C)(C)C)c1 (centres unmarked) [Compound C, Glycine, N-[3-[4-[1-[[3,5-bis(1,1-dimethylethyl)-4-hydroxyphenyl]thio]-methylethyl]thio-2,6-bis(1,1-dimethylethyl)phenoxy]-2-hydroxypropyl]]
percent increase of HDL cholesterol [2]: 40%
percent increase of apoAI (apoAI-HDL) accumulation (HepG2 cells [1]; [4]): ~15%

CC(C)(Sc1cc(C(C)(C)C)c(O)c(C(C)(C)C)c1)Sc1cc(C(C)(C)C)c(OC[C@H]2OC(O)[C@H](O)[C@@H](O)[C@@H]2O)c(C(C)(C)C)c1 (some centres unmarked) [Compound D]
percent lowering of HDLc ([2]; 150 mg/kg/d): ~80%
percent decrease of apoAI (apoAI-HDL) accumulation (HepG2 cells [1]; 12.5 μM, compared to control): about 10%

CC(C)(Sc1cc(C(C)(C)C)c(O)c(C(C)(C)C)c1)Sc1cc(C(C)(C)C)c(OC[C@@H](O)[C@H](O)[C@H](O)[C@H](O)CO)c(C(C)(C)C)c1 [Compound E]
percent lowering of HDLc ([2]; 150 mg/kg/d): ~40%
percent decrease of apoAI (apoAI-HDL) accumulation (HepG2 cells [1]; 12.5 μM, compared to control): about 10%

O=C(O)c1cccnc1 [Niacin, Nicotinic acid, reference compound]
increase of apoAI accumulation / circulating apoAI-HDL (HepG2 cells [1]): increased
increase of apoAI accumulation / circulating apoAI-HDL (HepG2 cells [1]; listed as niacin): 10%

CC(C)(Sc1cc(C(C)(C)C)c(O)c(C(C)(C)C)c1)Sc1cc(C(C)(C)C)c(O)c(C(C)(C)C)c1 [Probucol, 4,4′-(isopropylidenedithio)bis(2,6-di-tert-butylphenol), reference compound]
percent decrease of apoAI (apoAI-HDL) accumulation (HepG2 cells [1]; 12.5 μM, compared to control): 23%
percent increase of 3[H]CE delivery to HepG2 cells (HepG2 cells [3]): 29%
percent increase of 3[H]CE delivery to HepG2 cells (HepG2 cells [3]; listed as probucol): increased
HDL holoprotein uptake (HDL holoprotein): reduced
effect on synthesis of apoAI (newly synthesized apoAI) (apoAI): reduced

CC1=C(/C=C/C(C)=C/C=C/C(C)=C/C(=O)O)C(C)(C)CCC1 [Retinoic acid, reference compound]
percent increase of apoAI accumulation (HepG2 cells [1]; 10 μM, positive control): 53.6%

— patent publication US7183317B2, “Compounds and methods to increase plasma HDL cholesterol levels and improve HDL functionality” (Atherogenics, Inc., priority 2004, dated 2007)
